“And” between values parts separate entries of the source, which are not always exact repeats. Equal entries are not always repeated.
Assay: molar heat capacity at constant pressure
Conditions: 101.33 kPa

CCCCc1ccc(C(=O)Oc2ccc(C#N)c(F)c2)cc1 [4-cyano-3-fluorophenyl 4-butylbenzoate]
Conditions	molar heat capacity at constant pressure
61.92 K, Crystal 1, Small (less than 1 g) adiabatic calorimetry	106.31 J/K/mol
63.2 K, Crystal 1, Small (less than 1 g) adiabatic calorimetry	108.1 J/K/mol
63.41 K, Crystal 1, Small (less than 1 g) adiabatic calorimetry	108.62 J/K/mol
63.57 K, Crystal 2, Small (less than 1 g) adiabatic calorimetry	113.15 J/K/mol
64.91 K, Crystal 1, Small (less than 1 g) adiabatic calorimetry	110.74 J/K/mol
65.24 K, Crystal 2, Small (less than 1 g) adiabatic calorimetry	115.68 J/K/mol
65.3 K, Crystal 1, Small (less than 1 g) adiabatic calorimetry	111.15 J/K/mol
66.41 K, Crystal 1, Small (less than 1 g) adiabatic calorimetry	112.9 J/K/mol
66.93 K, Crystal 2, Small (less than 1 g) adiabatic calorimetry	118.1 J/K/mol
67.38 K, Crystal 1, Small (less than 1 g) adiabatic calorimetry	114.12 J/K/mol
67.91 K, Crystal 1, Small (less than 1 g) adiabatic calorimetry	115.02 J/K/mol
68.62 K, Crystal 2, Small (less than 1 g) adiabatic calorimetry	120.58 J/K/mol
69.41 K, Crystal 1, Small (less than 1 g) adiabatic calorimetry	117.19 J/K/mol
69.46 K, Crystal 1, Small (less than 1 g) adiabatic calorimetry	117 J/K/mol
70 K, Crystal 1, Vacuum adiabatic calorimetry	117.76 J/K/mol
70 K, Crystal 2, Vacuum adiabatic calorimetry	122.57 J/K/mol
70.32 K, Crystal 2, Small (less than 1 g) adiabatic calorimetry	123.03 J/K/mol
70.92 K, Crystal 1, Small (less than 1 g) adiabatic calorimetry	119.27 J/K/mol
71.53 K, Crystal 1, Small (less than 1 g) adiabatic calorimetry	119.9 J/K/mol
72.11 K, Crystal 2, Small (less than 1 g) adiabatic calorimetry	125.5 J/K/mol
72.44 K, Crystal 1, Small (less than 1 g) adiabatic calorimetry	121.32 J/K/mol
73.59 K, Crystal 1, Small (less than 1 g) adiabatic calorimetry	122.75 J/K/mol
73.96 K, Crystal 1, Small (less than 1 g) adiabatic calorimetry	123.47 J/K/mol
74.05 K, Crystal 2, Small (less than 1 g) adiabatic calorimetry	128.27 J/K/mol
75.49 K, Crystal 1, Small (less than 1 g) adiabatic calorimetry	125.48 J/K/mol
75.66 K, Crystal 1, Small (less than 1 g) adiabatic calorimetry	125.55 J/K/mol
76.08 K, Crystal 2, Small (less than 1 g) adiabatic calorimetry	131.11 J/K/mol
77.02 K, Crystal 1, Small (less than 1 g) adiabatic calorimetry	127.52 J/K/mol
77.72 K, Crystal 1, Small (less than 1 g) adiabatic calorimetry	128.25 J/K/mol
78.1 K, Crystal 2, Small (less than 1 g) adiabatic calorimetry	133.74 J/K/mol
78.56 K, Crystal 1, Small (less than 1 g) adiabatic calorimetry	129.55 J/K/mol
79.79 K, Crystal 1, Small (less than 1 g) adiabatic calorimetry	130.94 J/K/mol
80 K, Crystal 1, Vacuum adiabatic calorimetry	131.22 J/K/mol
80 K, Crystal 2, Vacuum adiabatic calorimetry	136.34 J/K/mol
80.1 K, Crystal 1, Small (less than 1 g) adiabatic calorimetry	131.58 J/K/mol
80.14 K, Crystal 2, Small (less than 1 g) adiabatic calorimetry	136.53 J/K/mol
81.65 K, Crystal 1, Small (less than 1 g) adiabatic calorimetry	133.56 J/K/mol
81.86 K, Crystal 1, Small (less than 1 g) adiabatic calorimetry	133.65 J/K/mol
82.17 K, Crystal 2, Small (less than 1 g) adiabatic calorimetry	139.24 J/K/mol
83.21 K, Crystal 1, Small (less than 1 g) adiabatic calorimetry	135.55 J/K/mol
83.93 K, Crystal 1, Small (less than 1 g) adiabatic calorimetry	136.28 J/K/mol
84.22 K, Crystal 2, Small (less than 1 g) adiabatic calorimetry	141.95 J/K/mol
84.77 K, Crystal 1, Small (less than 1 g) adiabatic calorimetry	137.59 J/K/mol
86 K, Crystal 1, Small (less than 1 g) adiabatic calorimetry	138.9 J/K/mol
86.27 K, Crystal 2, Small (less than 1 g) adiabatic calorimetry	144.59 J/K/mol
86.34 K, Crystal 1, Small (less than 1 g) adiabatic calorimetry	139.51 J/K/mol
87.92 K, Crystal 1, Small (less than 1 g) adiabatic calorimetry	141.49 J/K/mol
88.19 K, Crystal 1, Small (less than 1 g) adiabatic calorimetry	141.58 J/K/mol
88.32 K, Crystal 2, Small (less than 1 g) adiabatic calorimetry	147.21 J/K/mol
89.5 K, Crystal 1, Small (less than 1 g) adiabatic calorimetry	143.41 J/K/mol
90 K, Crystal 1, Vacuum adiabatic calorimetry	143.78 J/K/mol
90 K, Crystal 2, Vacuum adiabatic calorimetry	149.41 J/K/mol
90.38 K, Crystal 2, Small (less than 1 g) adiabatic calorimetry	149.91 J/K/mol
90.49 K, Crystal 1, Small (less than 1 g) adiabatic calorimetry	144.38 J/K/mol
91.1 K, Crystal 1, Small (less than 1 g) adiabatic calorimetry	145.38 J/K/mol
92.46 K, Crystal 2, Small (less than 1 g) adiabatic calorimetry	152.54 J/K/mol
92.69 K, Crystal 1, Small (less than 1 g) adiabatic calorimetry	147.26 J/K/mol
92.79 K, Crystal 1, Small (less than 1 g) adiabatic calorimetry	147.14 J/K/mol
94.3 K, Crystal 1, Small (less than 1 g) adiabatic calorimetry	149.22 J/K/mol
94.53 K, Crystal 2, Small (less than 1 g) adiabatic calorimetry	155.21 J/K/mol
95.09 K, Crystal 1, Small (less than 1 g) adiabatic calorimetry	149.9 J/K/mol
95.91 K, Crystal 1, Small (less than 1 g) adiabatic calorimetry	151.12 J/K/mol
96.62 K, Crystal 2, Small (less than 1 g) adiabatic calorimetry	157.81 J/K/mol
97.38 K, Crystal 1, Small (less than 1 g) adiabatic calorimetry	152.62 J/K/mol
97.53 K, Crystal 1, Small (less than 1 g) adiabatic calorimetry	153.02 J/K/mol
98.72 K, Crystal 2, Small (less than 1 g) adiabatic calorimetry	160.47 J/K/mol
99.17 K, Crystal 1, Small (less than 1 g) adiabatic calorimetry	154.93 J/K/mol
99.68 K, Crystal 1, Small (less than 1 g) adiabatic calorimetry	155.3 J/K/mol
100 K, Crystal 1, Vacuum adiabatic calorimetry	155.66 J/K/mol
100 K, Crystal 2, Vacuum adiabatic calorimetry	162.05 J/K/mol
100.8 K, Crystal 1, Small (less than 1 g) adiabatic calorimetry	156.84 J/K/mol
100.83 K, Crystal 2, Small (less than 1 g) adiabatic calorimetry	163.07 J/K/mol
101.98 K, Crystal 1, Small (less than 1 g) adiabatic calorimetry	157.93 J/K/mol
102.45 K, Crystal 1, Small (less than 1 g) adiabatic calorimetry	158.74 J/K/mol
102.94 K, Crystal 2, Small (less than 1 g) adiabatic calorimetry	165.76 J/K/mol
104.1 K, Crystal 1, Small (less than 1 g) adiabatic calorimetry	160.69 J/K/mol
104.29 K, Crystal 1, Small (less than 1 g) adiabatic calorimetry	160.64 J/K/mol
105.07 K, Crystal 2, Small (less than 1 g) adiabatic calorimetry	168.36 J/K/mol
105.76 K, Crystal 1, Small (less than 1 g) adiabatic calorimetry	162.57 J/K/mol
106.6 K, Crystal 1, Small (less than 1 g) adiabatic calorimetry	163.27 J/K/mol
107.21 K, Crystal 2, Small (less than 1 g) adiabatic calorimetry	170.99 J/K/mol
107.43 K, Crystal 1, Small (less than 1 g) adiabatic calorimetry	164.48 J/K/mol
108.92 K, Crystal 1, Small (less than 1 g) adiabatic calorimetry	165.88 J/K/mol
109.11 K, Crystal 1, Small (less than 1 g) adiabatic calorimetry	166.36 J/K/mol
109.36 K, Crystal 2, Small (less than 1 g) adiabatic calorimetry	173.6 J/K/mol
110 K, Crystal 1, Vacuum adiabatic calorimetry	167.09 J/K/mol
110 K, Crystal 2, Vacuum adiabatic calorimetry	174.41 J/K/mol
110.8 K, Crystal 1, Small (less than 1 g) adiabatic calorimetry	168.33 J/K/mol
111.24 K, Crystal 1, Small (less than 1 g) adiabatic calorimetry	168.49 J/K/mol
111.51 K, Crystal 2, Small (less than 1 g) adiabatic calorimetry	176.31 J/K/mol
112.5 K, Crystal 1, Small (less than 1 g) adiabatic calorimetry	170.17 J/K/mol
113.57 K, Crystal 1, Small (less than 1 g) adiabatic calorimetry	171.15 J/K/mol
113.68 K, Crystal 2, Small (less than 1 g) adiabatic calorimetry	178.98 J/K/mol
114.2 K, Crystal 1, Small (less than 1 g) adiabatic calorimetry	172.16 J/K/mol
115.87 K, Crystal 2, Small (less than 1 g) adiabatic calorimetry	181.77 J/K/mol
115.91 K, Crystal 1, Small (less than 1 g) adiabatic calorimetry	173.74 J/K/mol and 174.07 J/K/mol
117.64 K, Crystal 1, Small (less than 1 g) adiabatic calorimetry	175.95 J/K/mol
118.06 K, Crystal 2, Small (less than 1 g) adiabatic calorimetry	184.44 J/K/mol
118.26 K, Crystal 1, Small (less than 1 g) adiabatic calorimetry	176.37 J/K/mol
119.36 K, Crystal 1, Small (less than 1 g) adiabatic calorimetry	177.93 J/K/mol
120 K, Crystal 1, Vacuum adiabatic calorimetry	178.29 J/K/mol
120 K, Crystal 2, Vacuum adiabatic calorimetry	186.87 J/K/mol
120.27 K, Crystal 2, Small (less than 1 g) adiabatic calorimetry	187.2 J/K/mol
120.61 K, Crystal 1, Small (less than 1 g) adiabatic calorimetry	178.97 J/K/mol
121.1 K, Crystal 1, Small (less than 1 g) adiabatic calorimetry	179.82 J/K/mol
122.48 K, Crystal 2, Small (less than 1 g) adiabatic calorimetry	189.96 J/K/mol
122.85 K, Crystal 1, Small (less than 1 g) adiabatic calorimetry	181.85 J/K/mol
122.98 K, Crystal 1, Small (less than 1 g) adiabatic calorimetry	181.61 J/K/mol
124.61 K, Crystal 1, Small (less than 1 g) adiabatic calorimetry	182.88 J/K/mol
124.71 K, Crystal 2, Small (less than 1 g) adiabatic calorimetry	192.76 J/K/mol
125.35 K, Crystal 1, Small (less than 1 g) adiabatic calorimetry	184.23 J/K/mol
126.37 K, Crystal 1, Small (less than 1 g) adiabatic calorimetry	185.75 J/K/mol
126.95 K, Crystal 2, Small (less than 1 g) adiabatic calorimetry	195.55 J/K/mol
127.73 K, Crystal 1, Small (less than 1 g) adiabatic calorimetry	186.92 J/K/mol
128.14 K, Crystal 1, Small (less than 1 g) adiabatic calorimetry	187.6 J/K/mol
129.2 K, Crystal 2, Small (less than 1 g) adiabatic calorimetry	198.34 J/K/mol
129.93 K, Crystal 1, Small (less than 1 g) adiabatic calorimetry	189.59 J/K/mol
130 K, Crystal 1, Vacuum adiabatic calorimetry	189.39 J/K/mol
130 K, Crystal 2, Vacuum adiabatic calorimetry	199.38 J/K/mol
130.12 K, Crystal 1, Small (less than 1 g) adiabatic calorimetry	189.53 J/K/mol
131.47 K, Crystal 2, Small (less than 1 g) adiabatic calorimetry	201.3 J/K/mol
131.72 K, Crystal 1, Small (less than 1 g) adiabatic calorimetry	191.62 J/K/mol
132.53 K, Crystal 1, Small (less than 1 g) adiabatic calorimetry	192.14 J/K/mol
133.51 K, Crystal 1, Small (less than 1 g) adiabatic calorimetry	193.32 J/K/mol
133.74 K, Crystal 2, Small (less than 1 g) adiabatic calorimetry	204.25 J/K/mol
134.94 K, Crystal 1, Small (less than 1 g) adiabatic calorimetry	194.79 J/K/mol
135.4 K, Crystal 1, Small (less than 1 g) adiabatic calorimetry	195.42 J/K/mol
136.03 K, Crystal 2, Small (less than 1 g) adiabatic calorimetry	207.21 J/K/mol
137.37 K, Crystal 1, Small (less than 1 g) adiabatic calorimetry	197.39 J/K/mol and 197.54 J/K/mol
138.33 K, Crystal 2, Small (less than 1 g) adiabatic calorimetry	210.2 J/K/mol
139.32 K, Crystal 1, Small (less than 1 g) adiabatic calorimetry	199.71 J/K/mol
139.8 K, Crystal 1, Small (less than 1 g) adiabatic calorimetry	200.05 J/K/mol
140 K, Crystal 1, Vacuum adiabatic calorimetry	200.27 J/K/mol
140 K, Crystal 2, Vacuum adiabatic calorimetry	212.43 J/K/mol
140.64 K, Crystal 2, Small (less than 1 g) adiabatic calorimetry	213.3 J/K/mol
